Results taken from the supplement of paper PMC10307832.

Experiments:
Test in all cases: relative viability (nuclei count vs DMSO), 5 days (fraction); higher = more cells survive
201T = test system: 201T
Procedure, shortened: (§1)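 Lung cancer cell lines in 1536-well plates got either a single drug or a fixed anchor-drug dose together with five library-drug doses (not always all listed) in √10 steps, by pin tool, on the day after seeding. Nuclei were counted after 5 days, and relative viability is the treated-to-vehicle ratio of nuclei counts. Values are medians of duplicate plates.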

HCC-44 = test system: HCC-44
Procedure, shortened: as §1

NCI-H2170 = test system: NCI-H2170
Procedure, shortened: as §1

NCI-H647 = test system: NCI-H647
Procedure, shortened: as §1

EPLC-272H = test system: EPLC-272H
Procedure, shortened: as §1

LCLC-97TM1 = test system: LCLC-97TM1
Procedure, shortened: as §1

HCC-827 = test system: HCC-827
Procedure, shortened: as §1

SW 1573 = test system: SW 1573
Procedure, shortened: as §1

COR-L 105 = test system: COR-L 105
Procedure, shortened: as §1

H3255 = test system: H3255
Procedure, shortened: as §1

NCI-H2087 = test system: NCI-H2087
Procedure, shortened: as §1

PC-3 [JPC-3] = test system: PC-3 [JPC-3]
Procedure, shortened: as §1

LU99A = test system: LU99A
Procedure, shortened: as §1

NCI-H650 = test system: NCI-H650
Procedure, shortened: as §1

NCI-H2342 = test system: NCI-H2342
Procedure, shortened: as §1

EKVX = test system: EKVX
Procedure, shortened: as §1

NCI-H2085 = test system: NCI-H2085
Procedure, shortened: as §1

NCI-H1666 = test system: NCI-H1666
Procedure, shortened: as §1

NCI-H1437 = test system: NCI-H1437
Procedure, shortened: as §1

LOU-NH91 = test system: LOU-NH91
Procedure, shortened: as §1

BEN = test system: BEN
Procedure, shortened: as §1

NCI-H1975 = test system: NCI-H1975
Procedure, shortened: as §1

O=c1cc(-c2cccc3c2Sc2ccccc2S3)oc(N2CCOCC2)c1 + N=C(N)NC(=N)NCCc1ccccc1 [Phenformin] (partner 250 µM)
relative viability (201T; first compound 0.08 µM): 0.445 | relative viability (201T; first compound 0.253 µM): 0.545 | relative viability (201T; first compound 0.8 µM): 0.423 | relative viability (201T; first compound 2.53 µM): 0.427 | relative viability (201T; first compound 8 µM): 0.498 | relative viability (HCC-44; first compound 0.08 µM): 0.173 | relative viability (HCC-44; first compound 0.253 µM): 0.172 | relative viability (HCC-44; first compound 0.8 µM): 0.144 | relative viability (HCC-44; first compound 2.53 µM): 0.182 | relative viability (HCC-44; first compound 8 µM): 0.217 | relative viability (NCI-H2170; first compound 0.08 µM): 0.427 | relative viability (NCI-H2170; first compound 0.253 µM): 0.444 | relative viability (NCI-H2170; first compound 0.8 µM): 0.431 | relative viability (NCI-H2170; first compound 2.53 µM): 0.319 | relative viability (NCI-H2170; first compound 8 µM): 0.444 | relative viability (NCI-H647; first compound 0.08 µM): 0.572 | relative viability (NCI-H647; first compound 0.253 µM): 0.838 | relative viability (NCI-H647; first compound 0.8 µM): 0.547 | relative viability (NCI-H647; first compound 2.53 µM): 0.476 | relative viability (NCI-H647; first compound 8 µM): 0.487 | relative viability (EPLC-272H; first compound 0.08 µM): 0.247 | relative viability (EPLC-272H; first compound 0.253 µM): 0.333 | relative viability (EPLC-272H; first compound 0.8 µM): 0.318 | relative viability (EPLC-272H; first compound 2.53 µM): 0.254 | relative viability (EPLC-272H; first compound 8 µM): 0.255 | relative viability (LCLC-97TM1; first compound 0.08 µM): 0.403 | relative viability (LCLC-97TM1; first compound 0.253 µM): 0.361 | relative viability (LCLC-97TM1; first compound 0.8 µM): 0.475 | relative viability (LCLC-97TM1; first compound 2.53 µM): 0.418 | relative viability (LCLC-97TM1; first compound 8 µM): 0.496 | relative viability (HCC-827; first compound 0.08 µM): 0.396 | relative viability (HCC-827; first compound 0.253 µM): 0.452 | relative viability (HCC-827; first compound 0.8 µM): 0.402 | relative viability (HCC-827; first compound 2.53 µM): 0.306 | relative viability (HCC-827; first compound 8 µM): 0.408 | relative viability (SW 1573; first compound 0.08 µM): 0.38 | relative viability (SW 1573; first compound 0.253 µM): 0.369 | relative viability (SW 1573; first compound 0.8 µM): 0.339 | relative viability (SW 1573; first compound 2.53 µM): 0.347 | relative viability (SW 1573; first compound 8 µM): 0.364 | relative viability (COR-L 105; first compound 0.08 µM): 0.454 | relative viability (COR-L 105; first compound 0.253 µM): 0.471 | relative viability (COR-L 105; first compound 0.8 µM): 0.466 | relative viability (COR-L 105; first compound 2.53 µM): 0.507 | relative viability (COR-L 105; first compound 8 µM): 0.47 | relative viability (H3255; first compound 0.08 µM): 0.323 | relative viability (H3255; first compound 0.253 µM): 0.393 | relative viability (H3255; first compound 0.8 µM): 0.339 | relative viability (H3255; first compound 2.53 µM): 0.338 | relative viability (H3255; first compound 8 µM): 0.39 | relative viability (NCI-H2087; first compound 0.08 µM): 0.47 | relative viability (NCI-H2087; first compound 0.253 µM): 0.623 | relative viability (NCI-H2087; first compound 0.8 µM): 0.527 | relative viability (NCI-H2087; first compound 2.53 µM): 0.398 | relative viability (NCI-H2087; first compound 8 µM): 0.462 | relative viability (PC-3 [JPC-3]; first compound 0.08 µM): 0.473 | relative viability (PC-3 [JPC-3]; first compound 0.253 µM): 0.458 | relative viability (PC-3 [JPC-3]; first compound 0.8 µM): 0.514 | relative viability (PC-3 [JPC-3]; first compound 2.53 µM): 0.448 | relative viability (PC-3 [JPC-3]; first compound 8 µM): 0.495 | relative viability (LU99A; first compound 0.08 µM): 0.872 | relative viability (LU99A; first compound 0.253 µM): 1.08 | relative viability (LU99A; first compound 0.8 µM): 1.03 | relative viability (LU99A; first compound 2.53 µM): 0.896 | relative viability (LU99A; first compound 8 µM): 1 | relative viability (NCI-H650; first compound 0.08 µM): 0.386 | relative viability (NCI-H650; first compound 0.253 µM): 0.437 | relative viability (NCI-H650; first compound 0.8 µM): 0.461 | relative viability (NCI-H650; first compound 8 µM): 0.452 | relative viability (NCI-H2342; first compound 0.08 µM): 0.526 | relative viability (NCI-H2342; first compound 0.253 µM): 0.62 | relative viability (NCI-H2342; first compound 0.8 µM): 0.542 | relative viability (NCI-H2342; first compound 2.53 µM): 0.557 | relative viability (NCI-H2342; first compound 8 µM): 0.608 | relative viability (EKVX; first compound 0.08 µM): 0.191 | relative viability (EKVX; first compound 0.253 µM): 0.237 | relative viability (EKVX; first compound 0.8 µM): 0.218 | relative viability (EKVX; first compound 2.53 µM): 0.209 | relative viability (EKVX; first compound 8 µM): 0.265 | relative viability (NCI-H2085; first compound 0.08 µM): 0.654 | relative viability (NCI-H2085; first compound 0.253 µM): 0.702 | relative viability (NCI-H2085; first compound 0.8 µM): 0.739 | relative viability (NCI-H2085; first compound 2.53 µM): 0.678 | relative viability (NCI-H2085; first compound 8 µM): 0.576 | relative viability (NCI-H1666; first compound 0.08 µM): 0.601 | relative viability (NCI-H1666; first compound 0.253 µM): 0.644 | relative viability (NCI-H1666; first compound 0.8 µM): 0.578 | relative viability (NCI-H1666; first compound 2.53 µM): 0.572 | relative viability (NCI-H1666; first compound 8 µM): 0.585 | relative viability (NCI-H1437; first compound 0.08 µM): 0.271 | relative viability (NCI-H1437; first compound 0.253 µM): 0.683 | relative viability (NCI-H1437; first compound 0.8 µM): 0.238 | relative viability (NCI-H1437; first compound 2.53 µM): 0.277 | relative viability (NCI-H1437; first compound 8 µM): 0.343 | relative viability (LOU-NH91; first compound 0.08 µM): 0.611 | relative viability (LOU-NH91; first compound 0.253 µM): 0.675 | relative viability (LOU-NH91; first compound 0.8 µM): 0.658 | relative viability (LOU-NH91; first compound 2.53 µM): 0.6 | relative viability (LOU-NH91; first compound 8 µM): 0.741 | relative viability (BEN; first compound 0.08 µM): 0.258 | relative viability (BEN; first compound 0.253 µM): 0.306 | relative viability (BEN; first compound 0.8 µM): 0.248 | relative viability (BEN; first compound 2.53 µM): 0.217 | relative viability (BEN; first compound 8 µM): 0.3 | relative viability (NCI-H1975; first compound 0.08 µM): 0.42 | relative viability (NCI-H1975; first compound 0.253 µM): 0.488 | relative viability (NCI-H1975; first compound 0.8 µM): 0.418 | relative viability (NCI-H1975; first compound 2.53 µM): 0.386 | relative viability (NCI-H1975; first compound 8 µM): 0.418
